Laboratory results reported in patent publication US8173668B1 (Alcon Research, Ltd., priority 2007, dated 2012).
Where “and” joins values, the source holds several entries; their conditions need not be identical. Equal values may be shown once.

Columns and labels:
[1] = target: T1, BK B2-Receptor in h-CM cells (Homo sapiens, UniProt P30411); test: Antagonism of FR-190997-induced [Ca2+]i mobilization in h-CM cells; type: cell-based; settings: FR-190997 as the agonist, read-out: Antagonist Potency (Ki)
T1 construct: B2-receptor proteins in h-TM, h-CM and h-NPE cells; endogenous in cells; host or cells: human trabecular meshwork (h-TM), human ciliary muscle (h-CM) and human non-pigmented ciliary epithelial (h-NPE) cells
Description: On the day of the experiment, one vial of FLIPR Calcium Assay Kit dye is re-suspended in 50 mL of a FLIPR buffer consisting of Hank's Balanced Salt Solution (HBSS), 20 mM HEPES, and 2.5 mM probenecid, pH 7.4. Cells are loaded with the calcium-sensitive dye by addition of an equal volume (50 μL) to each well of the 96-well plate and incubated with dye for 1 h at 23° C. After this time, the test compound plate and cell plate are placed in the FLIPR instrument. At the beginning of an experimental run, a signal test is performed to check the basal fluorescence signal from the dye-loaded cells and the uniformity of the signal across the plate. The basal fluorescence is adjusted between 8000-12000 counts by modifying the exposure time, the camera F-stop, or the laser power. […]
Fluorescence data are collected in real-time at 1.0 sec intervals for the first 60 secs and at 6.0 sec intervals for an additional 120 secs. […] The data are then analyzed using an automated, iterative, sigmoidal curve-fitting computer program to obtain the potency and intrinsic activities of the test agents as previously described (Sharif et al. J. Pharmacol. Exp. Ther. 286: 1094-1102, 1998; Sharif et al. Invest. Ophthalmol. Vis. Sci. 39:2562-2571, 1998; Kelly et al. J. Pharmacol. Exp. Ther. 304: 238-245, 2003). […]

[2] = target: T2, BK B2-Receptor in h-NPE cells (Homo sapiens, UniProt P30411); test: Antagonism of FR-190997-induced [Ca2+]i mobilization in h-NPE cells; type: cell-based; settings: FR-190997 as the agonist, read-out: Antagonist Potency (Ki)
T2 construct: B2-receptor proteins in h-TM, h-CM and h-NPE cells; endogenous in cells; host or cells: human trabecular meshwork (h-TM), human ciliary muscle (h-CM) and human non-pigmented ciliary epithelial (h-NPE) cells
T2 sequence (P30411 1-391): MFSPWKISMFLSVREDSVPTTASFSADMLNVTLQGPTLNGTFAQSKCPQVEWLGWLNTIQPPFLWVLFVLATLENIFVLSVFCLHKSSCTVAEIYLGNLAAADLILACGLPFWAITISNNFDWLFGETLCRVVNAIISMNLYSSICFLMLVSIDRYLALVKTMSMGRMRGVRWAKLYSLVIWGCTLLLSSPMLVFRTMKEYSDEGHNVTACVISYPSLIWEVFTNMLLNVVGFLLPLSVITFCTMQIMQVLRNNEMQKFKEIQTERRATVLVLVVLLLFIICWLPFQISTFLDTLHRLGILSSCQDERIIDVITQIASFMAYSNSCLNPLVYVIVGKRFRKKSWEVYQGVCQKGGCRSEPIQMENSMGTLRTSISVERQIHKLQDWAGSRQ
Description: (§1) On the day of the experiment, one vial of FLIPR Calcium Assay Kit dye is re-suspended in 50 mL of a FLIPR buffer consisting of Hank's Balanced Salt Solution (HBSS), 20 mM HEPES, and 2.5 mM probenecid, pH 7.4. Cells are loaded with the calcium-sensitive dye by addition of an equal volume (50 μL) to each well of the 96-well plate and incubated with dye for 1 h at 23° C. After this time, the test compound plate and cell plate are placed in the FLIPR instrument. At the beginning of an experimental run, a signal test is performed to check the basal fluorescence signal from the dye-loaded cells and the uniformity of the signal across the plate. The basal fluorescence is adjusted between 8000-12000 counts by modifying the exposure time, the camera F-stop, or the laser power. Instrument settings for a typical assay are the following: laser power 0.3-0.6 W, camera F-stop F/2, and exposure time 0.4 sec.
(§2) Fluorescence data are collected in real-time at 1.0 sec intervals for the first 60 secs and at 6.0 sec intervals for an additional 120 secs. […] The data are then analyzed using an automated, iterative, sigmoidal curve-fitting computer program to obtain the potency and intrinsic activities of the test agents as previously described (Sharif et al. J. Pharmacol. Exp. Ther. 286: 1094-1102, 1998; Sharif et al. Invest. Ophthalmol. Vis. Sci. 39:2562-2571, 1998; Kelly et al. J. Pharmacol. Exp. Ther. 304: 238-245, 2003). The sources of materials and reagents for such assays can be found in the references cited above.

[3] = target: human cloned B2-receptors (Homo sapiens, UniProt P30411); test: HTRF-based assay of endogenous IP1 production in CHO cells; type: cell-based; settings: CHO cells expressing human cloned B2-receptors, read-out: EC50, production of endogenous IP1 from PI turnover
[4] = target: T3, B2-receptors in h-CM cells (Homo sapiens, UniProt P30411); test: [Ca2+]i mobilization (FLIPR) in h-CM cells, agonist mode; type: cell-based; settings: h-CM cells, mean ± SEM
T3 construct: B2-receptor proteins in h-TM, h-CM and h-NPE cells; endogenous in cells; host or cells: human trabecular meshwork (h-TM), human ciliary muscle (h-CM) and human non-pigmented ciliary epithelial (h-NPE) cells
T3 sequence (P30411 1-391): T2 sequence (P30411 1-391)
Description: as §1, §2

[5] = test system: conscious ocular hypertensive cynomolgus monkey eyes; test: IOP response in lasered (hypertensive) eyes of conscious cynomolgus monkeys, topical ocular; type: in vivo; settings: for % Change in IOP: Table 7, dose = 30 μg
Description: Intraocular pressure (IOP) is determined with an Alcon Pneumatonometer (Alcon Laboratories, Inc., Fort Worth, Tex.) after light corneal anesthesia with 0.1% proparacaine. Right eyes are hypertensive as a result of laser trabeculoplasty. After a baseline IOP measurement, test compound is instilled in the right eyes only of 8-10 cynomolgus monkeys. Vehicle is instilled in the right eyes of 5-6 additional animals. Subsequent IOP measurements are taken at 1, 3, and 6 hours. IOP measurements are also taken on left eyes (normotensive and untreated) at each of these time points. The percent change in IOP from baseline is determined for each animal for every IOP measurement (Sharif et al. J. Ocular Pharmacol. Ther. 17: 305-317, 2001; May et al., J Pharmacol Exp Ther. 306: 301-309, 2003; Sharif et al. Invest. Ophthalmol. Vis. Res. 47: 4001-4010, 2006). Group mean and standard error of the mean (SEM) are calculated for each time point. […] In cases where the compound of invention has poor ocular bioavailability, the compound may need to be administered intracamerally or intravitreally in order to observe the IOP-lowering efficacy.
The IOP-lowering effect was slow to develop but significant IOP reduction was observed even 3 hours post-dosing with maximum ocular hypotension observed 16-48 hours post-dosing (Tables 6-8; FIGS. 3b-5).

[6] = target: T4, B2-receptors in h-NPE cells (Homo sapiens, UniProt P30411); test: [Ca2+]i mobilization (FLIPR) in h-NPE cells, agonist mode; type: cell-based; settings: h-NPE cells, mean ± SEM
T4 construct: B2-receptor proteins in h-TM, h-CM and h-NPE cells; endogenous in cells; host or cells: human trabecular meshwork (h-TM), human ciliary muscle (h-CM) and human non-pigmented ciliary epithelial (h-NPE) cells
T4 sequence (P30411 1-391): T2 sequence (P30411 1-391)
Description: as §1, §2

[7] = target: T5, B2-receptors in h-TM cells (Homo sapiens, UniProt P30411); test: [Ca2+]i mobilization (FLIPR) in h-TM cells, agonist mode; type: cell-based; settings: h-TM cells, mean ± SEM
T5 construct: B2-receptor proteins in h-TM, h-CM and h-NPE cells; endogenous in cells; host or cells: human trabecular meshwork (h-TM), human ciliary muscle (h-CM) and human non-pigmented ciliary epithelial (h-NPE) cells
T5 sequence (P30411 1-391): T2 sequence (P30411 1-391)
Description: as §1, §2

[8] = read-out: Intrinsic Activity (Emax, % max relative to BK)
[9] = read-out: Potency (EC50), [Ca2+]i mobilization

Ki [1] | Ki [2] [nM] | EC50 [3] [nM] | Emax [4, 8] [%] | EC50 [4, 9] [nM] | Emax [6, 8] [%] | EC50 [6, 9] [nM] | Emax ([7]; HTM, read-out: Intrinsic Activity (Emax, % max relative to BK)) [%] | EC50 [7, 9] [nM] | SMILES | % Change in IOP ([5]; Dose 1/3 hr) [%] | % Change in IOP ([5]; Dose 1/6 hr) [%] | % Change in IOP ([5]; Dose 2/24 hr) [%] | % Change in IOP ([5]; Dose 2/48 hr) [%] | lowering of IOP ([5]; topical ocular, 0.03-600 μg/eye)
45 nM and 71 nM | 124 |  |  |  |  |  |  |  | Cc1nc2c(OCc3c(Cl)ccc(N(C)C(=O)CNC(=O)/C=C/c4ccc(C(=O)N(C)C)cc4)c3Cl)cccn2c1Br [FR-167344] |  |  |  |  | 
 |  | 38 | 96 | 237 ± 29 | 86 | 709 ± 54 | 93 | 290 ± 75 | Cc1cc(OCc2ccccn2)c2cccc(OCc3c(Cl)ccc(N(C)C(=O)CNC(=O)/C=C/c4ccc(/C=C/c5ccncc5)nc4)c3Cl)c2n1 [Compound 1] | −12.5 ± 3.4 | −18.9 ± 6.6 | −26.6 ± 5.4 | −15.1 ± 3.9 | significant dose-dependent lowering of IOP
68 nM and 114 nM | 439 |  |  |  |  |  |  |  | CC(=O)Nc1ccc(/C=C/C(=O)NCC(=O)N(C)c2ccc(Cl)c(COc3cccc4ccc(C)nc34)c2Cl)cn1 [FR-173657] |  |  |  |  | 
